Biological target: fully phosphorylated, active Mouse ERK2 protein (Mus musculus (Mouse), UniProt P63085)
Test: Active ERK2 (aERK) IMAP assay, condition 1
Assay type: biochemical
Details: aERK assay condition 1, 30 μM ATP
Method: (§1) Active ERK2 (aERK) Assay: (Unless Indicated Otherwise, the Data Provided for aERK was obtained using Condition 1)
Activated ERK2 activity was also determined in the IMAP assay format using the procedure outlined above. […] Reactions proceeded for 30 minutes before termination by addition of 60 μl IMAP detection beads in binding buffer. Plates were read as above after 30 minute binding equilibration.

fully phosphorylated, active Mouse ERK2 protein, sequence (P63085 whole entry): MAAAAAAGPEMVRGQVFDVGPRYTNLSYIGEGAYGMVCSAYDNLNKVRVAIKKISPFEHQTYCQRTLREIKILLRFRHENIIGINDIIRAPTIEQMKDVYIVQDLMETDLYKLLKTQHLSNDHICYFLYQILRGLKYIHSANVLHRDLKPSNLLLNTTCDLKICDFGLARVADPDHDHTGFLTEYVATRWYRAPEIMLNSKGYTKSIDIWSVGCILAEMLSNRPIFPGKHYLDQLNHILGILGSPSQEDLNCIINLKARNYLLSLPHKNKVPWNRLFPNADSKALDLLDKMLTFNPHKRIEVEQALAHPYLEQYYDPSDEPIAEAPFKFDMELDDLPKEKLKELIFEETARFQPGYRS

| IC50 | Compound |
| --- | --- |
| 173 nM | O=C(N[C@@H]1CCCN(Cc2c(F)cccc2F)C1)c1ccc2[nH]nc(-c3ccc4c(c3)CCO4)c2c1 |
| 395 nM | CN1CC(NC(=O)c2ccc3[nH]nc(-c4ccc5nccn5c4)c3c2)CCC1C1CC1 (stereo not shown) |
| 14.6 nM | COc1cccc(F)c1CN1C[C@H](NC(=O)c2ccc3[nH]nc(-c4ccnc(C)c4)c3c2)CC[C@H]1C(=O)N1CCC(O)CC1 [N-{(3R,6S)-1-(2-fluoro-6-methoxybenzyl)-6-[(4-hydroxypiperidin-1-yl)carbonyl]piperidin-3-yl}-3-(2-methylpyridin-4-yl)-1H-indazole-5-carboxamide] |
| 181 nM | Cc1cc(-c2n[nH]c3ccc(C(=O)N[C@@H]4CCCN(CC(O)c5ccccc5F)C4)cc23)ccn1 (stereo partly shown) |
| 12.9 nM | O=C(NC1CCCCN(CCc2cccc3ccccc23)C1)c1ccc2[nH]nc(-c3ccncc3)c2c1 (stereo not shown) |
| 999 nM | N#Cc1cccc(CN2CCC[C@@H](NC(=O)c3ccc4[nH]nc(-c5ccc6c(c5)CCO6)c4c3)C2)c1 |
| 62.3 nM | O=C(N[C@@H]1CCCN(c2ccccc2F)C1)c1ccc2[nH]nc(-c3ccncc3)c2c1 |
| 150 nM | CN1C[C@@H](Cc2c(F)cccc2F)C[C@H](NC(=O)c2ccc3[nH]nc(-c4ccn5ccnc5c4)c3c2)C1 |
| 20.8 nM | O=C(NC1COCCN(CCc2c(F)cccc2F)C1)c1ccc2[nH]nc(-c3ccncc3)c2c1 (stereo not shown) |
| 3.23 nM | CN1CC(Cc2c(F)cccc2F)CC(NC(=O)c2ccc3[nH]nc(-c4ccc5nsnc5c4)c3c2)C1 (stereo not shown) |
| 50.1 nM | O=C(N[C@@H]1CCCN(Cc2ncon2)C1)c1ccc2[nH]nc(-c3ccncc3)c2c1 |

Biological target: fully phosphorylated, mouse aERK2 enzyme (Mus musculus (Mouse), UniProt P63085)
Sequence (P63085 whole entry): as above
Test: Active ERK2 (aERK) IMAP-FP assay, condition 2
Assay type: biochemical
Details: aERK assay condition 2, 30 uM ATP; read-out: aERK IC50
Method: as §1
Activated ERK2 activity was determined in an IMAP-FP assay (Molecular Devices). […] Phosphorylation reactions were allowed to proceed for 40-45 minutes and were immediately quenched by the addition of 60 μL IMAP detection beads (1:1000 dilutions) in IMAP binding buffer. Plates were read on EnVision reader after 30 minutes binding equilibration.

| IC50 | Compound |
| --- | --- |
| 2.5 nM | COc1cccc(F)c1CN1C[C@H](NC(=O)c2ccc3[nH]nc(-c4ccnc(C)c4)c3c2)CC[C@H]1C(=O)N(C)C1CC1 [N-[(3R,6S)-6-[cyclopropyl(methyl)carbamoyl]-1-(2-fluoro-6-methoxybenzyl)piperidin-3-yl]-3-(2-methylpyridin-4-yl)-1H-indazole-5-carboxamide] |
| 4.9 nM | COc1cccc(F)c1CN1C[C@H](NC(=O)c2ccc3[nH]nc(-c4ccnc(C)c4)c3c2)CC[C@H]1C(=O)NCC1CC1 [N-[(3R,6S)-6-[(cyclopropylmethyl)carbamoyl]-1-(2-fluoro-6-methoxybenzyl)piperidin-3-yl]-3-(2-methylpyridin-4-yl)-1H-indazole-5-carboxamide] |
| 54.8 nM | COc1cccc(F)c1CN1C[C@H](NC(=O)c2ccc3[nH]nc(-c4ccnc(C)c4)c3c2)CC[C@H]1C(=O)Nc1ccc(C)cc1C [N-[(3R,6S)-6-[(2,4-dimethylphenyl)carbamoyl]-1-(2-fluoro-6-methoxybenzyl)piperidin-3-yl]-3-(2-methylpyridin-4-yl)-1H-indazole-5-carboxamide] |
| 0.6 nM | COc1cccc(F)c1CN1C[C@H](NC(=O)c2ccc3[nH]nc(-c4ccnc(C)c4)c3c2)CC[C@H]1C(=O)NOCC1CC1 [N-[(3R,6S)-6-[(cyclopropylmethoxy)carbamoyl]-1-(2-fluoro-6-methoxybenzyl)piperidin-3-yl]-3-(2-methylpyridin-4-yl)-1H-indazole-5-carboxamide] |
| 11.6 nM | COc1ccc(NC(=O)[C@@H]2CC[C@@H](NC(=O)c3ccc4[nH]nc(-c5ccnc(C)c5)c4c3)CN2Cc2c(F)cccc2OC)cc1 [N-{(3R,6S)-1-(2-fluoro-6-methoxybenzyl)-6-[(4-methoxyphenyl)carbamoyl]piperidin-3-yl}-3-(2-methylpyridin-4-yl)-1H-indazole-5-carboxamide] |

Same assay, conditions: active ERK2; read-out: aErk2 Ic50

| Compound | IC50 |
| --- | --- |
| COc1cccc(F)c1CN1C[C@H](NC(=O)c2ccc3[nH]nc(-c4ccc5nc(C)sc5c4)c3c2)CC[C@H]1C(=O)N(C)C [N-[(3R,6S)-6-(dimethylcarbamoyl)-1-(2-fluoro-6-methoxybenzyl)piperidin-3-yl]-3-(2-methyl-1,3-benzothiazol-6-yl)-1H-indazole-5-carboxamide] | 48 nM |
| COc1cccc(F)c1CN1C[C@H](NC(=O)c2ccc3[nH]nc(-c4ccncc4)c3c2)CC[C@H]1C(=O)N1CCCCC1 [N-[(3R,6S)-1-(2-fluoro-6-methoxybenzyl)-6-(piperidin-1-ylcarbonyl)piperidin-3-yl]-3-pyridin-4-yl-1H-indazole-5-carboxamide] | 59.9 nM |
| CCNC(=O)[C@@H]1CC[C@@H](NC(=O)c2ccc3[nH]nc(-c4ccncc4)c3c2)CN1Cc1ccccc1 [N-[(3R,6S)-1-benzyl-6-(ethylcarbamoyl)-piperidin-3-yl]-3-pyridin-4-yl-1H-indazole-5-carboxamide] | 48.3 nM |
| CCN(CC)C(=O)[C@@H]1CC[C@@H](NC(=O)c2ccc3[nH]nc(-c4ccnnc4)c3c2)CN1Cc1c(F)cccc1OC [N-[(3R,6S)-6-(diethylcarbamoyl)-1-(2-fluoro-6-methoxybenzyl)piperidin-3-yl]-3-pyridazin-4-yl-1H-indazole-5-carboxamide] | 137 nM |
| Cc1cc(-c2n[nH]c3ccc(C(=O)N[C@@H]4CC[C@@H](C(=O)N(C)C)N(CCc5ccccc5)C4)cc23)ccn1 [N-[(3R,6S)-6-(dimethylcarbamoyl)-1-(2-phenylethyl)piperidin-3-yl]-3-(2-methylpyridin-4-yl)-1H-indazole-5-carboxamide] | 131 nM |
| [2H]C([2H])([2H])Oc1cccc(F)c1CN1C[C@H](NC(=O)c2ccc3[nH]nc(-c4ccc5nc(C)sc5c4)c3c2)CC[C@H]1C(=O)N1CCN(C(C)=O)CC1 | 63.1 nM |
| COc1cccc(F)c1CN1C[C@H](NC(=O)c2ccc3[nH]nc(-c4ccncc4)c3c2)CC[C@H]1C(=O)N1CCCC1 [N-[(3R,6S)-1-(2-fluoro-6-methoxybenzyl)-6-(pyrrolidin-1-ylcarbonyl)piperidin-3-yl]-3-pyridin-4-yl-1H-indazole-5-carboxamide] | 35.5 nM |
| CCCN(CCC)C(=O)[C@@H]1CC[C@@H](NC(=O)c2ccc3[nH]nc(-c4ccnc(C)c4)c3c2)CN1Cc1c(F)cccc1OC [N-[(3R,6S)-6-(dipropylcarbamoyl)-1-(2-fluoro-6-methoxybenzyl)piperidin-3-yl]-3-(2-methylpyridin-4-yl)-1H-indazole-5-carboxamide] | 141 nM |
| COc1cccc(F)c1CN1C[C@H](NC(=O)c2ccc3[nH]nc(-c4ccncc4)c3c2)CC[C@H]1C(=O)N(C)C [N-[(3R,6S)-6-(dimethylcarbamoyl)-1-(2-fluoro-6-methoxybenzyl)piperidin-3-yl]-3-pyridin-4-yl-1H-indazole-5-carboxamide] | 18.2 nM |
| COc1cccc(F)c1CN1C[C@H](NC(=O)c2ccc3[nH]nc(-c4ccc5nn(C)cc5c4)c3c2)CC[C@H]1C(=O)N1CC(F)(F)C1 | 22.8 nM |
| COc1cccc(F)c1CN1C[C@H](NC(=O)c2ccc3[nH]nc(-c4ccnc(C)c4)c3c2)CC[C@H]1C(=O)N1CCN(C(=O)OC(C)C)CC1 [1-methylethyl 4-{[(2S,5R)-1-(2-fluoro-6-methoxybenzyl)-5-({[3-(2-methylpyridin-4-yl)-1H-indazol-5-yl]carbonyl}amino)piperidin-2-yl]carbonyl}piperazine-1-carboxylate] | 19.1 nM |

Results, then the compound that gave them:

| IC50 | Compound |
| --- | --- |
| 46.5 nM | COc1cccc(F)c1CN1C[C@H](NC(=O)c2ccc3[nH]nc(-c4ccnc(C)c4)c3c2)CC[C@H]1C(=O)NCC(F)(F)F [N-{(3R,6S)-1-(2-fluoro-6-methoxybenzyl)-6-[(2,2,2-trifluoroethyl)carbamoyl]piperidin-3-yl}-3-(2-methylpyridin-4-yl)-1H-indazole-5-carboxamide] |
| 17.9 nM | COC(=O)N1CCN(C(=O)[C@@H]2CC[C@@H](NC(=O)c3ccc4[nH]nc(-c5ccnc(C)c5)c4c3)CN2Cc2c(F)cccc2OC)CC1 [methyl 4-{[(2S,5R)-1-(2-fluoro-6-methoxy-benzyl)-5-({[3-(2-methylpyridin-4-yl)-1H-indazol-5-yl]carbonyl}amino)piperidin-2-yl]carbonyl}piperazine-1-carboxylate] |
| 56.7 nM | COCCNC(=O)[C@@H]1CC[C@@H](NC(=O)c2ccc3[nH]nc(-c4ccnc(C)c4)c3c2)CN1Cc1c(F)cccc1OC [N-{(3R,6S)-1-(2-fluoro-6-methoxybenzyl)-6-[(2-methoxyethyl)carbamoyl]piperidin-3-yl}-3-(2-methylpyridin-4-yl)-1H-indazole-5-carboxamide] |
| 9 nM | COc1cccc(F)c1CN1C[C@H](NC(=O)c2ccc3[nH]nc(-c4ccnc(C)c4)c3c2)CC[C@H]1C(=O)NCCF [N-[(3R,6S)-6-[(2-fluoroethyl)carbamoyl]-1-(2-fluoro-6-methoxybenzyl)piperidin-3-yl]-3-(2-methylpyridin-4-yl)-1H-indazole-5-carboxamide] |
| 90.3 nM | COc1cccc(F)c1CN1C[C@H](NC(=O)c2ccc3[nH]nc(-c4ccnc(C)c4)c3c2)CC[C@H]1C(=O)N(C)CCCCNC(=O)OC(C)(C)C [tert-butyl {4-[{[(2S,5R)-1-(2-fluoro-6-methoxybenzyl)-5-({[3-(2-methylpyridin-4-yl)-1H-indazol-5-yl]carbonyl}amino)piperidin-2-yl]carbonyl}(methyl)amino]butyl}carbamate] |
| 32.5 nM | COc1cccc(F)c1CN1C[C@H](NC(=O)c2ccc3[nH]nc(-c4ccnc(C)c4)c3c2)CC[C@H]1C(=O)N1CCN(C)CC1 [N-{(3R,6S)-1-(2-fluoro-6-methoxybenzyl)-6-[(4-methylpiperazin-1-yl)carbonyl]piperidin-3-yl}-3-(2-methylpyridin-4-yl)-1H-indazole-5-carboxamide] |
| 47.4 nM | COc1cccc(F)c1CN1C[C@H](NC(=O)c2ccc3[nH]nc(-c4ccc5nc(C)sc5c4)c3c2)CC[C@H]1C(=O)N1CC(F)(F)C1 [N-[(3R,6S)-6-[(3,3-difluoroazetidin-1-yl)carbonyl]-1-(2-fluoro-6-methoxybenzyl)-piperidin-3-yl]-3-(2-methyl-1,3-benzothiazol-6-yl)-1H-indazole-5-carboxamide] |

Source: patent publication US8999957B2, “Heterocyclic compounds as ERK inhibitors” (Merck Sharp & Dohme Corp., priority 2010, dated 2015)
